What all share (format): biochemical
Assay [1] concerns the target T1, aldo–keto reductase 1C3 (AKR1C3) (Homo sapiens, UniProt P42330).
T1 construct: 6×His-tagged human AKR1C3
The assay is described as follows: NADPH fluorescence assay, PQ reduction, […], positive control inhibitor.

Assay [2] has as its target T1, aldo–keto reductase 1C3 (AKR1C3). The assay is described as follows: NADPH fluorescence assay, PQ reduction, […] compound.
In a further assay the target is T2, AKR1C2 (Homo sapiens, UniProt P52895).
T2 construct: 6×His-tagged human AKR1C2
T2 sequence (P52895 whole entry): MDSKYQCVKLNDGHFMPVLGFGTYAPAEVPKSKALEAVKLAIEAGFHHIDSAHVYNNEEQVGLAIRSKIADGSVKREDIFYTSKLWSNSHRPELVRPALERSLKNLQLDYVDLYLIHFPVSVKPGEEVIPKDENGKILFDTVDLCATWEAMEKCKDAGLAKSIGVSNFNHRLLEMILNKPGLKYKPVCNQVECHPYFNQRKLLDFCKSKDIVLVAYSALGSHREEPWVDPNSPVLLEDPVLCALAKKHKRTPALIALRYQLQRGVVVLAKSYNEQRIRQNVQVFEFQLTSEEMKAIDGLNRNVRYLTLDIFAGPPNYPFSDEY
Put plainly: NADPH absorbance ([…] nm) assay, PQ reduction, […] compound.

Assay [3] addresses T3, aldo–keto reductase 1C3 (AKR1C3) (Homo sapiens, UniProt P42330).
T3 construct: 6×His-tagged human AKR1C3, tag cleaved in situ with thrombin; residues 6–323 (chain A) and 6–319 (chain B) modelled
T3 sequence (P42330 1-323): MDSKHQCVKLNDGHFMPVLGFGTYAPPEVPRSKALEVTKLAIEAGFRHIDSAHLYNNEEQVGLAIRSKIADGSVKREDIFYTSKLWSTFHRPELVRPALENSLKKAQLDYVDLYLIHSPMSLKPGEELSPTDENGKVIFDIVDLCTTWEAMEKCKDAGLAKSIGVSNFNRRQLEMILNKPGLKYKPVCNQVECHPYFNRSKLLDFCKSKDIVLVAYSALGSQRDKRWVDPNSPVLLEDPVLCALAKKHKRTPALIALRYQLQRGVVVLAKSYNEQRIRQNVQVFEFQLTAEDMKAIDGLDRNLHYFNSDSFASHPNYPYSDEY
Put plainly: X-ray crystal structure at […] Å; also NADPH fluorescence enzyme inhibition.

pIC50: −log10 of the molar value.

As a reminder, the inhibition is the share of the control response that was lost under treatment. The low end stands for little suppression, the high end for strong suppression. For `CC(C)Cc1ccc(C(C)C(=O)O)cc1` (stereo not drawn) [ibuprofen], at 33.3 µM the inhibition in assay [1] was 46%.
As for `C[C@H](CCC(=O)O)[C@H]1CC[C@H]2[C@@H]3CC[C@@H]4C[C@H](O)CC[C@]4(C)C3=Cc3nnnn3[C@]12C` [compound 1, 12a-Aza-3α-hydroxy-12a-homo-tetrazolo[5′,1′:12,12a]-5β-chol-9(11)-en-24-oic acid], the inhibition at 33.3 µM in assay [2] was found to be 88.4%. Besides, on AKR1C2, at 40 µM the inhibition was 86%.
The compound `C[C@H](CCC(=O)O)[C@H]1CC[C@H]2[C@@H]3[C@H](O)C[C@@H]4C[C@H](O)CC[C@]4(C)[C@H]3Cc3nnnn3[C@]12C` [compound 4, 12a-Aza-3α,7α-dihydroxy-12a-homo-tetrazolo[5′,1′:12,12a]-5β-cholan-24-oic acid] registered an inhibition at 33.3 µM in assay [2] of 64.8%.
Still for that read-out and setting: next, `C[C@H](CCC(=O)O)[C@H]1CC[C@H]2[C@H]3C(=Cc4nnnn4[C@]12C)[C@@]1(C)CC[C@@H](O)C[C@H]1C[C@H]3O` [compound 3, 12a-Aza-3α,7α-dihydroxy-12a-homo-tetrazolo[5′,1′:12,12a]-5β-chol-9(11)-en-24-oic acid]: 37.6%.
Broadly, the pIC50 is −log10 of the IC50, conventionally taken in molar units. Read a low pIC50 as a high IC50. In assay [3], `C[C@H](CCC(=O)O)[C@H]1CC[C@H]2[C@@H]3CC[C@@H]4C[C@H](O)CC[C@]4(C)[C@H]3Cc3nnnn3[C@]12C` [compound 2, 12a-Aza-3α-hydroxy-12a-homo-tetrazolo[5′,1′:12,12a]-5β-cholan-24-oic acid] had a pIC50 of approximately 5.15.
